Experimental data as given in patent US7365080B2, “Pharmaceutical compositions comprising thieno[2,3-c]pyridine derivatives and use thereof” (Rimonyx Pharmaceuticals Ltd., priority 2003, dated 2008).
pIC50: −log10 of the molar value.

How the values were obtained:
L-Selectin = target: T1, L-Selectin (Homo sapiens, UniProt P14151); experiment: ELISA: inhibition of L-selectin/IgG binding to immobilized heparin (Heparin-BSA); details: L-Selectin binding to heparin
T1 construct: purchased Research and Development Systems 728-LS
T1 sequence (P14151 39-332 limits assumed): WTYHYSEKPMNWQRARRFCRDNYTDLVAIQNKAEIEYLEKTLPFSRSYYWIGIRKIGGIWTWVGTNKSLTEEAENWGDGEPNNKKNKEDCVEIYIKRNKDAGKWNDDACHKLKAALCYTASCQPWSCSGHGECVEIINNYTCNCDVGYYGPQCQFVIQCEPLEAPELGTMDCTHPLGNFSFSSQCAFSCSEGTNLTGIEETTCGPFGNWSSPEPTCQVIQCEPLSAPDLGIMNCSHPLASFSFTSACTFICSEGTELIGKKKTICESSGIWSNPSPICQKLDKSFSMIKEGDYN
Experimental: The inhibitory effect of the compounds of the present invention can be evaluated by several methods in vitro. One assay for measuring GAG-ECAM binding, exemplified herein below, detects the binding of L selectin/IgG to immobilized heparin. Another assay utilizes immobilized L-selectin, or L-selectin fused to protein domains other than IgG. The amount of bound L-selectin is determined by an ELISA assay using, for example, a monoclonal antibody raised against L-selectin, which is conjugated to horseradish peroxidase. […] The Dregg-55 antibody was also shown to inhibit L-selectin-dependent adhesion in vitro, neutrophil accumulation in vitro and inflammation in vivo (Co M. S. et al, Immunotechnology 493: 253-266, 1999).
An in vitro assay was used to assess the ability of test compounds according to formula I to inhibit the interactions of L-selectin with HS-GAGs. The assay was suitable for determining the concentration required for 50% inhibition (IC-50) for each specific compound. In the assay, the GAG used was heparin. Thus, porcine intestinal mucosa heparin conjugated to Bovine Serum Albumin (Heparin-BSA; Sigma Cat. No. H0403) at […] in Phosphate Buffered Saline (PBS; pH 6.5) was added to a 96 well polystyrene ELISA plate (NUNC Cat. No. 442404; 0.1 ml per well) and incubated Over Night (ON) at 4° C. Following the incubation, the plate was washed thoroughly, by immersion, with de-ionized water and PBS (pH 6.5). The ELISA plate was then blocked with BSA (ICN Cat. No.160069, 3%, 200 μl per well) for 1 hour at Room Temperature (RT). Following blocking, the plate was washed with de-ionized water, and then with PBS (pH 6.5) containing Tween 20 (Sigma Cat. No. P-1379, 0.05%). Compounds were synthesized or purchased from ChemDiv Labs (San Diego, Calif.), dissolved in DMSO, diluted in PBS and added to the wells at various concentrations in the range of 0.01 to 300 μM. Recombinant Human L-Selectin/IgG (Research and Development Systems Cat. No.728-LS) dissolved in PBS supplemented with BSA (0.1%) and calcium chloride (1 mM) was added to the ELISA plate (100 μl per well) and incubated for 60 minutes at RT with shaking. Following incubation, the plate was washed with de-ionized water and three times with PBS (pH 6.5) containing Tween 20. Anti-Human IgG Peroxidase Conjugate (1:5000; Sigma Product No. A8667) diluted in PBS supplemented with BSA (0.1%) and calcium chloride (1 mM) was added to the ELISA plate (100 μl per well) and incubated for 30 minutes at RT with shaking. The plate was then washed with de-ionized water and three times with PBS (pH 6.5) containing Tween 20. The peroxidase substrate cromogen, TMB (Dako Cat. No. S1599) was added (100 μl per well) to the ELISA plate and incubated at room temperature. After 15 minutes ELISA Stop Solution (hydrochloric acid 1N, sulfuric acid 3N) was added (200 μl per well) to stop the peroxidase catalyzed colorimetric reaction. The Optical Density (OD) of the samples was measured at 450 nm using an ELISA plate reader (Dynatech MR5000). Data were analyzed with Graphpad Prism software and IC-50 values were established. The P-selectin assay was carried out in a similar fashion, except that Recombinant Human P-Selectin/IgG (Research and Development Systems Cat.No.137-PS) was used.

[1] = system: Human T-lymphocytes on human endothelial cells; experiment: T-lymphocyte rolling on endothelial cells under shear flow; type: cell-based; details: for inhibition at 25 µM: Homo sapiens, high shear flow, read-out: inhibition of cell rolling; for % rolling: test compound (25 μM), shear flow
Experimental: Human T-lymphocytes were passed over a layer of human endothelial cells according to the method of Lawrence and Springer (Cell 65: 859-873, 1991). At high shear flow, migrating T-lymphocytes adhered transiently and intermittently to the endothelial cells as a consequence of HS-GAG-ECAM interaction. The resulting T-cell rolling was recorded by video camera and the number of rolling cells per defined area during a constant period of time was determined. Soluble heparin (competitor of cell surface GAGs) abolished T-cell rolling under high shear flow conditions. Compounds no. 1, 11 and 25, each at 25 μM, inhibited cell rolling by 90, 90 and 70%, respectively.

MCF7 (Breast carcinoma) = experiment: Inhibition of growth of cancer cell lines (alamar blue); type: cell-based; details: Homo sapiens, 48 hours
Experimental: (§1) Each cell line (MCF7 (Breast carcinoma), NCI-H460 (Non-small cell lung carcinoma), and SF-268 (glioma) was pre-incubated on a microtiter plate. Inhibitor compounds were then added at a concentration of 0.1 μM and the culture incubated for 48 hours. End-point determinations were made with alamar blue (Gray G D, Wickstrom E, Biotechniques 21(5) 780-782, 1996). Results for each compound are presented as the percent of growth of the treated cells as compared to the untreated cells. Compounds, which reduce the growth of any one of the cell lines to approximately 32% or less were considered suitable for further and more extensive study (Monks A et al, J. Natl. Cancer Inst., 83:757-766, 1991. Compound no. 1 inhibited the growth of the cell lines MCF7, NCI-H460, and SF-268 by 99%, 100% and 99%, respectively.

[2] = system: NCI-H460 (Non-small cell lung carcinoma); experiment: as above; type: cell-based; details: Homo sapiens, 48 hours
Experimental: as §1

SF-268 (glioma) = experiment: as above; type: cell-based; details: Homo sapiens, 48 hours
Experimental: as §1

[3] = system: CCR-CEM (Human T Cell leukemia); experiment: Inhibition of leukemia cell growth (SRB); type: cell-based; details: 10^−8-10^−4 Molar, 48 hours
Experimental: (§2) Each cell line (RPMI-8226 (Multiple Myeloma), MOLT-4 (Acute lymphoblastic leukemia), CCR-CEM (Human T Cell leukemia), K562 (Chronic myeloid leukemia), SR (Chronic myeloid leukemia) was pre-incubated on a microtiter plate (Monks A et al, J. Natl. Cancer Inst., 83:757-766, 1991). Inhibitor compounds were then added at different concentrations (10^−8-10^−4 Molar) and the culture incubated for 48 hours. A sulforhodamine B (SRB) protein assay was used to estimate cell viability or growth (Skehan P et al, J. Natl. Cancer Inst., 82:1107-1112, 1990). Compound no. 1 inhibited the growth of the cell lines RPMI-8226, MOLT4, CCR-CEM, K562 and SR to 100%, 100%, 100%, 100% and 93%, respectively. There was negligible cell death (less than 15%).

[4] = system: K562 (Chronic myeloid leukemia); experiment: Inhibition of leukemia cell growth (SRB); type: cell-based; details: 10^−8-10^−4 Molar, 48 hours
Experimental: as §2

[5] = system: MOLT-4 (Acute lymphoblastic leukemia); experiment: Inhibition of leukemia cell growth (SRB); type: cell-based; details: MOLT4; 10^−8-10^−4 Molar, 48 hours
Experimental: as §2

[6] = system: RPMI-8226 (Multiple Myeloma); experiment: Inhibition of leukemia cell growth (SRB); type: cell-based; details: 10^−8-10^−4 Molar, 48 hours
Experimental: as §2

[7] = system: SR (Chronic myeloid leukemia); experiment: Inhibition of leukemia cell growth (SRB); type: cell-based; details: 10^−8-10^−4 Molar, 48 hours
Experimental: as §2

[8] = system: RPMI-8226, MOLT-4, CCR-CEM, K562, SR; experiment: Leukemia cell lines (SRB): cell death; type: cell-based; details: 48 hours
Experimental: as §2

[9] = system: immobilized heparin / L-selectin/IgG; experiment: Assay 1: direct interaction with heparin, pre-incubation versus co-incubation with L-selectin; type: binding; details: compound 0.1-200 μM, 90 min, washed before L-selectin/IgG
Experimental: Inhibitor Compounds at final concentration 0.1-200 μM were incubated in the ELISA plate for 90 min, and then washed with incubation buffer. After washing, L-selectin/IgG was added to the wells pre-incubated with compounds. At the same time, in separate control wells, L-selectin was co-incubated with inhibitor Compounds for 90 min. Following the incubation, L-selectin bound to the plate was quantified by antibody conjugated to Horse Radish Peroxidase and OD measurement as performed as described in Example 5.

BALB/c mice = experiment: Thioglycollate-induced leukocyte and neutrophil infiltration into mouse peritoneum; type: in vivo; details: intraperitoneal, 1 hour before thioglycollate; 3 hours
Experimental: The ability of compounds of the present invention to reduce leukocyte migration to sites of acute inflammation was evaluated in BALB/c mice using a thioglycolate-induced model of peritonitis. In this animal model, interactions of L- and P-selectin with HS-GAGs have been implicated in neutrophil infiltration (Nelson, R. M., 82:3253-3258, 1993; Xie, X. et al., J. Biol. Chem., 275:34818-34825, 2000).
BALB/c mice (6 weeks old, ˜20 g in weight, 15 mice/group) received intraperitoneal injection of an inhibitor compound in 0.2 ml DMSO/Tween/sterile saline 1 hour before administration of thioglycollate (Sigma). Control groups received vehicle and sham controls received no thioglycollate. Mice were injected intraperitoneally with 1 ml of 3% thioglycollate broth (Xie, X. et al., J. Biol. Chem., 275, 34818-34825, 2000). Mice were sacrificed after 3 hours, and the peritoneal cavities were ravaged with […] of ice-cold saline containing 2 mM EDTA to prevent clotting. After red blood cell lysis, leukocytes were counted in a hemocytometer. Neutrophils were counted after staining with Türck. Data was expressed as mean±SEM, and statistical analysis was performed by Student t test. A value of P<0.05 was taken to denote statistical significance.

Mice = experiment: TNBS induced colitis (Inflammatory Bowel Disease model); type: in vivo, mouse
Experimental: Control mice (12 per group) were injected intraperitoneally (IP) with Test Compound (TC) Vehicle (Tween 80, 5%, 200 μl). […] The control and experimental mice were injected once per day for 7 successive days. […] 11 in the same experimental model. The compound was administered once a day for 7 days in a suspension with 0.5% methylcellulose per os. There were 12 mice per group and the control mice received 0.5% methylcellulose only. Compound no.

Lewis rats = experiment: Experimental Autoimmune Encephalomyelitis (MBP p87-99); type: in vivo, rat; details: intra-peritoneal once daily for 3 days, 10 and 35 mg/kg
Text: In autoimmune conditions, T cells reactive to self-antigens escape elimination in the thymus and are activated in the periphery, where they can provoke damage in specific organs. EAE, a model of autoimmune disease that is induced in Lewis rats, bears many similarities to the human disease Multiple Sclerosis (MS). T cells found in brain lesions of MS patients have TCR junctional rearrangements that are identical to T cells found in the spinal cords of Lewis rats immunized with a peptide of myelin basic protein MBP p87-99. In addition, a major T and B cell response in MS patients is directed to MBP p87-99.
EAE is induced in rats by immunization with MBP p87-99. The inhibitor Compounds are administered once daily by intra-peritoneal injection for 3 consecutive days starting 1 day before the appearance of EAE symptoms (day 12 after EAE induction). The degree of clinical disease is scored as follows: 0=no signs; 1=loss of tail tonicity; 2=paralysis of hind limbs; 3=paralysis of all four limbs 4=quadriplegic animal in a moribund state.

Row | pIC50 (L-Selectin) | level of inhibition of L-selectin binding to heparin, pre-incubation versus co-incubation [9] | SMILES | inhibition at 25 µM [1] [%] | % rolling [1] [%] | inhibition at 0.1 µM (MCF7 (Breast carcinoma)) [%] | inhibition at 0.1 µM [2] [%] | inhibition at 0.1 µM (SF-268 (glioma)) [%] | growth inhibited to [3] [%] | growth inhibited to [4] [%] | growth inhibited to [5] [%] | growth inhibited to [6] [%] | growth inhibited to [7] [%] | cell death [8] | leukocyte migration into the peritoneal cavity (in words) (BALB/c mice) | colonic damage (score 0 to 10), in words (Mice; IP once per day for 7 days, 10 and 35 mg/kg) | colonic damage (score 0 to 10), in words (Mice; per os once a day for 7 days, 3, 50 and 100 mg/kg) | clinical signs of EAE (in words) (Lewis rats)
1 | 4.89 | – | CC(C)N1CCc2c(sc(NC(=O)c3ccc(S(=O)(=O)N4CCc5ccccc5C4)cc3)c2C(N)=O)C1 [Compound 1, 2-[[(4-(3,4-dihydro-2(1H)-isoquinolinyl)sulfonyl]benzoyl]amino]-6-(1-methylethyl)-4,5,6,7-tetrahydrothieno[2,3-c]pyridine-3-carboxamide] | 90 | 30 | 99 | 100 | 99 | 100 | 100 | 100 | 100 | 93 | less than 15% | – | – | – | –
2 | 6.46 | same level of inhibition | CCN1CCc2c(sc(NC(=O)c3ccc(S(=O)(=O)N(CC)CC)cc3)c2-c2nc3ccccc3s2)C1 [Compound 11, 2-[[4-[(diethylamino)sulfonyl]benzoyl]amino]-3-(benzothiazol-2-yl)-6-ethyl-4,5,6,7-tetrahydrothieno[2,3-c]pyridine] | 90 | <10 | – | – | – | – | – | – | – | – | – | inhibited efficiently | significantly inhibited | significantly inhibited | significantly inhibited
